*1 amine or outer side, *2 acyl side, *3 side chain or, on linkers, in order; H or OH if unused. Where a SMILES comes first, the peptide text is derived from it. [ ]: non-standard residue; d: D form. The star is where a group is joined. X3 = Cc1cc(F)cc(-c2cnc(NCCNC(=O)CCOCCOCCOCCOCCC(=O)*)c(-c3nc4ccc(Cl)cc4[nH]3)c2N2CCC(N)CC2)c1; Dolaproine = CO[C@@H]([C@@H]1CCCN1)[C@@H](C)C(=O)O; Dil = CC[C@H](C)[C@H](NC)[C@@H](CC(=O)O)OC; PABC = O=C(OCc1ccc(N[*:1])cc1)[*:2]; X2 = C[C@@H](N*)[C@@H](O)c1ccccc1; Cit = NC(=O)NCCC[C@H](N)C(=O)O; NMeV = CN[C@H](C(=O)O)C(C)C; Ahx = NCCCCCC(=O)O
What was measured:
Assay type in all cases: cell-based
[1] = molecular target: T1, human somatostatin receptor subtype 2 (Homo sapiens, UniProt P30874); assay: Functional assay for SSTR2 agonists (HTRF cAMP); details: CHO-K1 cells stably expressing human SST2; NKH477-stimulated cAMP; 20 min at 37 C; read-out: hSST2 cAMP Avg EC50
T1 construct: expressed in transfected cells
T1 sequence (P30874 whole entry): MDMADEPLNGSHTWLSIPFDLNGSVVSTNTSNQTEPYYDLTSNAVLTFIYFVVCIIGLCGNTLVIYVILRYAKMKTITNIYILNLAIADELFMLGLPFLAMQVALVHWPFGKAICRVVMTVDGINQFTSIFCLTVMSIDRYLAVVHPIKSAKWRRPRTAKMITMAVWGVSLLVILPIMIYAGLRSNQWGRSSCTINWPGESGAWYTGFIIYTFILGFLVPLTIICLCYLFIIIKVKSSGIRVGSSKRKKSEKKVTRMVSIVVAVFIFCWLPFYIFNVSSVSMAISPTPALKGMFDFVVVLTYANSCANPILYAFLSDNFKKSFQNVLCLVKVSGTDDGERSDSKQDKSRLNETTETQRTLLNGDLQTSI
Source text: General overview: All five SSTR subtypes are Gi coupled G-protein coupled receptors (GPCRs) that lead to decreases in intracellular cyclic AMP (cAMP) when activated by an agonist. Therefore, measurement of intracellular cAMP levels can be used to assess whether compounds of the invention are agonists of SSTR subtypes (John Kelly, Troy Stevens, W. Joseph Thompson, and Roland Seifert, Current Protocols in Pharmacology. 2005, 2.2.1-2.2). One example of an intracellular cAMP assay is described below.
Four days prior to the assay, 2,000 Chinese hamster ovary cells (CHO-K1, ATCC #CCL-61) stably expressing the human somatostatin receptor subtype 2 are plated in each well of a 96-well tissue culture-treated plate in Ham's F12 growth media (ThermoFisher #10-080-CM) supplemented with 10% donor bovine serum (Gemini Bio-Products #100-506), 100 U/mL penicillin; 100 ug/mL streptomycin, 2 mM L-glutamine (Gemini Bio-Products #400-110) and 0.2 mg/mL hygromycin B (GoldBio #31282-04-9). The cells are cultured at 37° C., 5% CO2 and 95% humidity. cAMP is measured with HTRF dynamic cAMP assay (Cisbio. #62AM5PEJ) per manufacturer's instructions. […] The cells are incubated for 20 minutes at 37° C. (the final concentration of the compounds of the invention are typically 0-10,000 nM). The cells are treated with 50 μL of lysis buffer (HRTF cAMP kit, Cisbio) and incubated at room temperature for 30 minutes with rotary shaking at 600 rpm, and then diluted with 150 μL of stimulation buffer and shaken for an additional five minutes at 300 rpm. The lysate is transferred to 384-well plates and incubated for 1-24 hours at room temperature, and cAMP accumulation is detected by d2-labeled cAMP and Anti-cAMP-Cryptate. The time-resolved fluorescent signal is read using a m1000 Pro (Tecan) or CLARIOStar (BMG Labtech) microplate reader, where the samples are excited with light at 340 nm and emission light is measured at 620 nm and 665 nm. The data is expressed as a calculation of the fluorescence ratio (665 nm/620 nm). The intracellular cAMP concentrations are calculated by regression to a standard curve and are plotted vs, the concentration of the compounds of the invention. The EC50 of the compounds are calculated using standard methods. All data manipulations are in GraphPad Prism v9 (GraphPad, San Diego, CA).

SST2 = molecular target: T2, SST2 (Homo sapiens, UniProt P30874); assay: PathHunter CHO-K1 SST2 Internalization Assay; details: PathHunter CHO-K1 SST2 cells; 90 min at 37 C; luminescence; read-out: Internalization EC50
T2 construct: host or cells: PathHunter CHO-K1 SST2 cells
T2 sequence (P30874 whole entry): as above
Protocol: NDCs of the present invention were assessed in vitro using the human PathHunter CHO-K1 SST2 β-arrestin2 and PathHunter CHO-K1 SST2 Internalization Assays from DiscoverX. The CHO-K cells were seeded in 20 μLs of cell culture medium in a white-walled 384 well tissue culture-compatible plate at a density of 2500 cells/well. After a 48-hour incubation, cells were treated with 5 μLs of a 1:3 serially diluted SST2 NDC prepared at 5× concentration with a final top compound concentration of 10 uM for 90 min at 37 C and in 5% CO2. 11 dilutions were tested as well as one treatment that was compound free. After incubation, the media containing treatments were discarded and 20 μL of a working solution of Beta-Glo from Promega Beta-Go Assay System was added to each well. The plate was then incubated for 60 min at room temperature in the dark. Luminescence was measured using a Tecan plate reader. IC50 curves were generated using the nonlinear regression analysis (four-parameters) with GraphPad Prism 9. Results were the average of duplicates and are corrected for background.

[2] = system: NCI-H524 human small cell lung cancer cells; assay: H524 assay: inhibition of cell proliferation (CellTiter Glo); details: 2 h treatment, washout, additional 70 h incubation
Protocol: NDCs of the present invention were assessed in an in vitro assay evaluating the inhibition of cell proliferation. NCI-H524 (ATCC) human small cell lung cancer cells were plated in 96-well V-bottom plates (Costar) at a concentration of 5,000 cells/well. 24 h later, the cells were treated for 2 h with a NDC. NDC starting dose was 1 uM and two-fold serial dilutions were done for a total of 11 points. After 2 h of treatment, cells were spun down, and the drug-containing media was removed, and fresh complete media was added and used to resuspend the cells, which were spun again. After removal of the media, the cells were resuspended in complete medium and incubated for an additional 70 h. Cell proliferation was assessed using the CellTiter Glo Assay according to the standard protocol (Promega). Luminescence was measured using a TECAN plate reader. Percent proliferation inhibition was calculated using the following formula: % inhibition=(Luminescence Control−Luminescence Treatment)/Luminescence Control*100. IC50 curves were generated using the nonlinear regression analysis (four-parameter) with GraphPad Prism 9.

Compound: CC[C@H](C)[C@@H]([C@@H](CC(=O)N1CCC[C@H]1[C@H](OC)[C@@H](C)C(=O)N[C@H](C)[C@@H](O)c1ccccc1)OC)N(C)C(=O)[C@@H](NC(=O)[C@H](C(C)C)N(C)C(=O)OCc1ccc(NC(=O)[C@H](CCCNC(N)=O)NC(=O)[C@@H](NC(=O)[C@H](CCC(=O)O)NC(=O)CCOCCC(=O)NCCNc2ncc(-c3cc(C)cc(F)c3)c(N3CCC(N)CC3)c2-c2nc3ccc(Cl)cc3[nH]2)C(C)C)c(OCCN)c1)C(C)C [Compound 1]
- EC50 [1]: 0.25 nM
- EC50 (SST2): 18 nM
- EC50 [2]: 15 nM

Compound: CC[C@H](C)[C@@H]([C@@H](CC(=O)N1CCC[C@H]1[C@H](OC)[C@@H](C)C(=O)N[C@H](C)[C@@H](O)c1ccccc1)OC)N(C)C(=O)[C@@H](NC(=O)[C@H](C(C)C)N(C)C(=O)OCc1ccc(NC(=O)[C@H](CCCNC(N)=O)NC(=O)[C@@H](NC(=O)[C@H](CCC(=O)O)NC(=O)CCOCCC(=O)NCCNc2ncc(-c3cc(C)cc(F)c3)c(N3CCC(N)CC3)c2-c2nc3ccc(Cl)cc3[nH]2)C(C)C)cc1C(F)(F)F)C(C)C [Compound 2]
- EC50 [1]: 0.57 nM
- EC50 (SST2): 8.6 nM
- EC50 [2]: 2500 nM

Compound: CC[C@H](C)[C@@H]([C@@H](CC(=O)N1CCC[C@H]1[C@H](OC)[C@@H](C)C(=O)N[C@H](C)[C@@H](O)c1ccccc1)OC)N(C)C(=O)[C@@H](NC(=O)[C@H](C(C)C)N(C)C(=O)OCc1ccc(NC(=O)[C@H](CCCNC(N)=O)NC(=O)[C@@H](NC(=O)CCOCCC(=O)NCCNc2ncc(-c3cc(C)cc(F)c3)c(N3CCC(N)CC3)c2-c2nc3ccc(Cl)cc3[nH]2)C(C)C)cc1C(=O)O)C(C)C [Compound 7]
- EC50 [1]: 0.26 nM

Compound: CC[C@H](C)[C@@H]([C@@H](CC(=O)N1CCC[C@H]1[C@H](OC)[C@@H](C)C(=O)N[C@H](C)[C@@H](O)c1ccccc1)OC)N(C)C(=O)[C@@H](NC(=O)[C@H](C(C)C)N(C)C(=O)OCc1ccc(NC(=O)[C@H](C)NC(=O)[C@@H](NC(=O)CCCC(=O)N(C)CC(=O)NCCNc2ncc(-c3cc(C)cc(F)c3)c(N3CCC(N)CC3)c2-c2nc3ccc(Cl)cc3[nH]2)C(C)C)c(O[C@@H]2O[C@H](C(=O)NCCN)[C@@H](O)[C@H](O)[C@H]2O)c1)C(C)C [Compound 45]
- EC50 [1]: 1.3 nM

Compound: CC[C@H](C)[C@@H]([C@@H](CC(=O)N1CCC[C@H]1[C@H](OC)[C@@H](C)C(=O)N[C@H](C)[C@@H](O)c1ccccc1)OC)N(C)C(=O)[C@@H](NC(=O)[C@H](C(C)C)N(C)C(=O)OCc1ccc(NC(=O)[C@H](C)NC(=O)[C@@H](NC(=O)CCOCCC(=O)N(C)CC(=O)NCCNc2ncc(-c3cc(C)cc(F)c3)c(N3CCC(N)CC3)c2-c2cc3ccc(Cl)cc3[nH]2)C(C)C)c(O[C@@H]2O[C@H](C(=O)NCCN)[C@@H](O)[C@H](O)[C@H]2O)c1)C(C)C [Compound 46]
- EC50 [1]: 0.23 nM

Compound: CC[C@H](C)[C@@H]([C@@H](CC(=O)N1CCC[C@H]1[C@H](OC)[C@@H](C)C(=O)N[C@H](C)[C@@H](O)c1ccccc1)OC)N(C)C(=O)[C@@H](NC(=O)[C@H](C(C)C)N(C)C(=O)OCc1ccc(NC(=O)[C@H](C)NC(=O)[C@@H](NC(=O)CCOCCC(=O)N(C)CC(=O)NCCNc2ncc(-c3cc(C)cc(F)c3)c(N3CCC(N)CC3)c2-c2cc3ccc(Cl)cc3[nH]2)C(C)C)c(O[C@@H]2O[C@H](C(=O)NCCN)[C@@H](O)[C@H](O)[C@H]2O)c1)C(C)C [Compound 47]
- EC50 [1]: 0.31 nM

Compound: CC[C@H](C)[C@@H]([C@@H](CC(=O)N1CCC[C@H]1[C@H](OC)[C@@H](C)C(=O)N[C@H](C)[C@@H](O)c1ccccc1)OC)N(C)C(=O)[C@@H](NC(=O)[C@H](C(C)C)N(C)C(=O)OCc1ccc(NC(=O)[C@H](CCCNC(N)=O)NC(=O)[C@@H](NC(=O)CCOCCC(=O)NCCNc2ncc(-c3cc(C)cc(F)c3)c(N3CCC(N)CC3)c2-c2nc3ccc(Cl)cc3[nH]2)C(C)C)c(O[C@@H]2O[C@H](C(=O)NCCNC(=O)CCCCCCCCCCCCCCC(=O)O)[C@@H](O)[C@H](O)[C@H]2O)c1)C(C)C [Compound 53]
- EC50 [1]: 0.48 nM
- EC50 [2]: 200 nM

Compound: CC[C@H](C)[C@@H]([C@@H](CC(=O)N1CCC[C@H]1[C@H](OC)[C@@H](C)C(=O)N[C@H](C)[C@@H](O)c1ccccc1)OC)N(C)C(=O)[C@@H](NC(=O)[C@H](C(C)C)N(C)C(=O)OCc1ccc(NC(=O)[C@H](CCCNC(N)=O)NC(=O)[C@@H](NC(=O)CCOCCC(=O)NCCNc2ncc(-c3cc(C)cc(F)c3)c(N3CCC(N)CC3)c2-c2nc3ccc(Cl)cc3[nH]2)C(C)C)cc1C(=O)NCC(=O)O)C(C)C [Compound 60]
- EC50 [1]: 0.17 nM

Compound: CC[C@H](C)[C@@H]([C@@H](CC(=O)N1CCC[C@H]1[C@H](OC)[C@@H](C)C(=O)N[C@H](C)[C@@H](O)c1ccccc1)OC)N(C)C(=O)[C@@H](NC(=O)[C@H](C(C)C)N(C)C(=O)OCc1ccc(NC(=O)[C@H](CCCNC(N)=O)NC(=O)[C@@H](NC(=O)CCCC(=O)N(C)CC(=O)N(C)CC(=O)N(C)CC(=O)NCCNc2ncc(-c3cc(C)cc(F)c3)c(N3CCC(N)CC3)c2-c2nc3ccc(Cl)cc3[nH]2)C(C)C)c(O[C@@H]2O[C@H](C(=O)O)[C@@H](O)[C@H](O)[C@H]2O)c1)C(C)C [Compound 130]
- EC50 [2]: 3800 nM

Compound: CC[C@H](C)[C@@H]([C@@H](CC(=O)N1CCC[C@H]1[C@H](OC)[C@@H](C)C(=O)N[C@H](C)[C@@H](O)c1ccccc1)OC)N(C)C(=O)[C@@H](NC(=O)[C@H](C(C)C)N(C)C(=O)OCc1ccc(NC(=O)[C@H](C)NC(=O)[C@@H](NC(=O)C[C@@H](N)C(=O)NCCOCCC(=O)NCCNc2ncc(-c3cc(C)cc(F)c3)c(N3CCC(NC)CC3)c2-c2nc3ccc(Cl)cc3[nH]2)C(C)C)c(O[C@@H]2O[C@H](C(=O)O)[C@@H](O)[C@H](O)[C@H]2O)c1)C(C)C [Compound 135]
- EC50 [1]: 0.42 nM
- EC50 (SST2): 3.6 nM

Compound: CC[C@H](C)[C@@H]([C@@H](CC(=O)N1CCC[C@H]1[C@H](OC)[C@@H](C)C(=O)N[C@H](C)[C@@H](O)c1ccccc1)OC)N(C)C(=O)[C@@H](NC(=O)[C@H](C(C)C)N(C)C(=O)OCc1ccc(NC(=O)[C@H](CCCNC(N)=O)NC(=O)[C@@H](NC(=O)CCCCCNC(=O)[C@H](CCC(N)=O)NC(=O)[C@H](CCC(N)=O)NC(=O)CCOCCOCCOCCOCCC(=O)NCCNc2ncc(-c3cc(C)cc(F)c3)c(N3CCC(N)CC3)c2-c2nc3ccc(Cl)cc3[nH]2)C(C)C)cc1)C(C)C [Compound 143] (X3-QQ[Ahx]V[Cit][PABC][NMeV]V[Dil][Dolaproine]-X2)
- EC50 [1]: 0.4 nM

Compound: CC[C@H](C)[C@@H]([C@@H](CC(=O)N1CCC[C@H]1[C@H](OC)[C@@H](C)C(=O)N[C@H](C)[C@@H](O)c1ccccc1)OC)N(C)C(=O)[C@@H](NC(=O)[C@H](C(C)C)N(C)C(=O)OCc1ccc(O[C@@H]2O[C@H](C(=O)O)[C@@H](O)[C@H](O)[C@H]2O)c(NC(=O)[C@H](CCCNC(N)=O)NC(=O)[C@@H](NC(=O)CCOCCC(=O)NCCNc2ncc(-c3cc(C)cc(F)c3)c(N3CCC(N)CC3)c2-c2nc3ccc(Cl)cc3[nH]2)C(C)C)c1)C(C)C [Compound 248]
- EC50 [2]: 3.2 nM

Reference: US20260007758A1, “SO[…]-2 RECEPTOR (SST2R) NON-PEPTIDE DRUG CONJUGATES AND USES THEREOF” (Crinetics Pharmaceuticals, Inc., priority 2024, published 2026)
